pIC50: −log10 of the molar value.
test system: HSV-1; assay: HSV-1 replication in infected Vero 76 cells, DNA hybridization capture assay; type: cell-based, herpes simplex virus 1; conditions: Human alphaherpesvirus 1; HSV-1 infected Vero 76 cells (MOI=0.001), 40-48 hours incubation, HSV DNA detected by hybridization/chemiluminescence
Description: Vero 76 cells were maintained in MEM with Earle's salts, L-glutamine, 8% FBS (Hyclone, A-1111-L) and 100 units/mL Penicillin-100 μg/mL Streptomycin. For assay conditions, FBS was reduced to 2%. Cells are seeded into 96-well tissue culture plates at a density of 5×10^4 cells/well after being incubated for 45 min at 37° C. in the presence of HSV-1 or HSV-2 (MOI=0.001). Test compounds are added to the wells and the plates are incubated at 37° C. for 40-48 hours. Cell lysates are prepared as follows: media was removed and replaced with 150 μL/well 0.2 N NaOH with 1% igepal CA 630 or NP-40. Plates were incubated up to 14 days at room temperature in a humidified chamber to prevent evaporation.
For the detection probe, a gel-purified, digoxigenin-labeled, 710-bp PCR fragment of the HSV UL-15 sequence was utilized. PCR conditions included 0.5 μM primers, 180 μM dTTP, 20 μM dUTP-digoxigenin (Boehringer Mannheim 1558706), 200 μM each of dATP, dCTP, and dGTP, 1× PCR Buffer II (Perkin Elmer), 2.5 mM MgCl2, 0.025 units/μL of AmpliTaq Gold polymerase (Perkin Elmer), and 5 ng of gel-purified HSV DNA per 100 μL Extension conditions were 10 min at 95° C., followed by 30 cycles of 95° C. for 1 min, 55° C. for 30 sec, and 72° C. for 2 min. The amplification was completed with a 10-min incubation at 72° C. Primers were selected to amplify a 728 bp probe spanning a section of the HSV1 UL15 open reading frame (nucleotides 249-977). Single-stranded transcripts were purified with Promega M13 Wizard kits. The final product was mixed 1:1 with a mixture of 6 M GuSCN, 100 mM EDTA and 200 μg/mL herring sperm DNA and stored at 4° C.
The capture DNA plasmid (HSV UL13 region in pUC) was linearized by cutting with Xba I, denatured for 15 min at 95° C. and diluted immediately into Reacti-Bind DNA Coating Solution (Pierce, 17250, diluted 1:1 with TE buffer, pH 8) at 1 ng/μL. 75 μL/well were added to Corning (#3922 or 9690) white 96-well plates and incubated at room temperature for at least 4 hrs before washing twice with 300 μL/well 0.2×SSC/0.05% Tween-20 (SSC/T buffer). The plates were then incubated overnight at room temperature with 150 μL/well 0.2 N NaOH, 1% IGEPAL and 10 μg/mL herring sperm DNA.
Twenty-seven (27) μL of cell lysate was combined with 45 μL of hybridization solution (final concentration: 3M GuSCN, 50 mM EDTA, 100 μg/ml salmon sperm DNA, 5× Denhardt's solution, 0.25× APE, and 5 ng of the digoxigenin-labeled detection probe). APE is 1.5 M NH4-acetate, 0.15 M NH4H2 phosphate, and 5 mM EDTA adjusted to pH 6.0. Mineral oil (50 μL) was added to prevent evaporation. The hybridization plates were incubated at 95° C. for 10 minutes to denature the DNA, then incubated at 42° C. overnight. The wells were washed 6× with 300 μL/well SSC/T buffer then incubated with 75 μL/well anti-digoxigenin-HRP-conjugated antibody (Boehringer Mannheim 1207733, 1:5000 in TE) for 30 min at room temperature. The wells were washed 6× with 300 μL/well with PBS/0.05% Tween-20 before 75 μL/well SuperSignal LBA substrate (Pierce) was added. The plates were incubated at room temperature for 30 minutes and chemiluminescence was measured in a Wallac Victor reader.
The following results were obtained for HSV-1.

| SMILES | pIC50 |
| --- | --- |
| Fc1cc(-c2c(-c3ccccc3)nn3c(N4CCCC4)ccnc23)ccn1 [Example 1, 3-(2-Fluoropyridin-4-yl)-2-phenyl-7-pyrrolidin-1-ylpyrazolo[1,5-α]pyrimidine] | 4.55 |
| c1ccc(-c2nn3c(N4CCCC4)ccnc3c2-c2ccnc(NC3CCCC3)c2)cc1 [Example 2, N-Cyclopentyl-4(2-phenyl-7-pyrrolidin-1-ylpyrazolo[1,5-α]pyrimidin-3-yl)pyridin-2-amine] | 6.10 |
| c1ccc(-c2nn3c(NC4CCCC4)ccnc3c2-c2ccnc(NC3CCCC3)c2)cc1 [Example 3, N-Cyclopentyl-3-[2-(cyclopentylamino)pyridin-4-yl]-2-phenylpyrazolo[1,5-α]pyrimidin-7-amine] | 6.52 |

Further lines, results first:

| pIC50 | SMILES |
| --- | --- |
| 5.62 | COc1ccc(-c2nn3c(NC4CCCC4)ccnc3c2-c2ccnc(NC3CCCC3)n2)cc1 [Example 6, N-Cyclopentyl-3-[2-(cyclopentylamino)pyrimidin-4-yl]-2-(4-methoxyphenyl)pyrazolo[1,5-α]pyrimidin-7-amine] |
| 6.22 | COc1ccc(-c2nn3c(NC4CCCC4)ccnc3c2-c2ccnc(NC3CCCC3)c2)cc1 [Example 4, N-Cyclopentyl-3-[2-(cyclopentylamino)-4-pyridinyl]-2-(4-methoxyphenyl)pyrazolo[1,5-α]pyrimidin-7-amine] |
| 5.92 | Fc1ccc(-c2nn3c(NC4CCCC4)ccnc3c2-c2ccnc(NC3CCCC3)c2)cc1 [Example 5, N-Cyclopentyl-3-[2-(cyclopentylamino)-4-pyridinyl]-2-(4-fluorophenyl)pyrazolo[1,5-α]pyrimidin-7-amine] |

From patent publication US7304068B2, “Substituted pyrazolo [1,5-A] pyrimidinyls and pharmaceutical uses therefore” (SmithKline Beecham Corporation, priority 2002, dated 2007)
